Laboratory results from patent US20190008810A1, “METHOD FOR PREVENTION, TREATMENT AND ALLEVIATION OF INFECTIOUS DISEASES AND DISORDERS” (REPLICON HEALTH OY, priority 2016, published 2019).

Experiments:
metabolism of alcohol = conditions: administered with ethanol to rats; cited from earlier work
CRP [1] = assay: Blood CRP in continuous IPA/Dry Eye disease model; type: in vivo, mice
Method: Tear volume was measured for groups 3 and 4 and later comparison results for group 2 were received. The blood samples were collected from saphenous vein on day 5 (prior the treatment) and on day 7, just prior anesthesia and during the perfusion (cardiac puncture). On day 7, the animals were terminally anesthetized and transcardially perfused. Plasma was separated in all collected blood samples and kept frozen at −80° C. until the measurements. CRP measurements were performed using mouse CRP ELISA kit. […] In addition, animals were monitored daily for general health status. The lacrimal glands were embedded into paraffin, sectioned, stained and analyzed for possible pathology.
In this Example, CRP results from 3 separate preclinical tests are presented and analyzed. […] CRP present in mouse serum samples were analyzed using mouse CRP ELISA kit (GWB-3B960E, Genway Biotech Inc.). […]
In two other CRP tests, the effect of the DGA Activation in two disease models, continuous vs. discontinuous was analyzed. […] Logarithmic change of blood CRP during the 7-day disease follow up period of each mouse in all groups was calculated and the averages are presented in FIGS. 4b and 4c. […]
Brief description of the disease models: 1) continuous IPA -model (see Example 1a) and 2) discontinuous MPTP/PD -model. […] Diet consumption per cage is monitored carefully before and during the study follow-up period. […]

CRP [2] = assay: Blood CRP in discontinuous MPTP/PD disease model; type: in vivo, mice
Method: In this Example, CRP results from 3 separate preclinical tests are presented and analyzed. First 4-day CRP test was conducted with 8 healthy mice using individuals as their own controls. Second 7-day CRP test was conducted in discontinuous disease model. And third also 7-day CRP test was conducted in continuous disease model. CRP present in mouse serum samples were analyzed using mouse CRP ELISA kit (GWB-3B960E, Genway Biotech Inc.). All blood samples were collected at the same time of the day.
In two other CRP tests, the effect of the DGA Activation in two disease models, continuous vs. discontinuous was analyzed. In FIG. 4b, results from discontinuous MPTP/PD disease model, and in FIG. 4c, results from continuous IPA/Dry Eye disease model. Logarithmic change of blood CRP during the 7-day disease follow up period of each mouse in all groups was calculated and the averages are presented in FIGS. 4b and 4c. (In both disease models, there was a 4-day priming with 50% DGA dose before activating the disease model and CRP test.)
Brief description of the disease models: 1) continuous IPA -model (see Example 1a) and 2) discontinuous MPTP/PD -model. MPTP (1-methyl-4-phenyl-1,2,3,6-tetrahydropyridine) is a neurotoxin precursor to MPP+, which causes symptoms of Parkinson's disease (PD). […] Diet consumption per cage is monitored carefully before and during the study follow-up period. […]

[3] = tested on: rat primary optic nerve astrocytes; assay: ROS generation (CellROX Green) in rat primary optic nerve astrocytes, Example 2; type: cell-based; conditions: 14 μM
Method: For proving the efficacy of DGA Activation in reducing ROS in infectious disorders an in vitro study using rat primary optic nerve astrocytes has been conducted. […] As an important part of the study the cell viability was estimated 6 hours after tBHP administration by two methods, i.e. LDH and MTT assays. Cell viability was measured using the in-house MTT assay (of Experimentica Ltd., Finland) and CytoTox96 non-radioactive cytotoxicity assay (G1780, Promega) in response to oxidative stress primary optic nerve astrocytes. The production of reactive oxygen species (ROS) was measured using CellROX Green (Invitrogen) and isolate RNA in RNALater solution (Ambion). Primary optical nerve astrocytes where obtained from 4-week-old male Wister rats (6 animals' altogether) and where cultured to obtain sufficient amount of cells for the experiment. In the experiment cells where plated at 5000 cells per well and allowed to adhere for 24 hrs prior to the administration of compounds for 48 hrs (replenished every 24 hrs). After 24 hrs the compounds were removed, and readded with new medium for 1 hr, prior to the administration of 85 μM tBHP (FIG. 3c). MTT and LDH assay were performed after 6 hrs and ROS detection using CellROX green was performed over a time course of 4 hrs. D-glyceric acid was mixed into the medium in beforehand in soluble calcium salt format (DGAcs). After mixing the calcium is liberated to the medium from the D-glyceric acid. D-glycerate is formed.

[4] = tested on: eimeria acervulina, eimeria maxima and eimeria tenella; assay: Coccidial challenge in broiler chickens, Example 1g; type: in vivo; conditions: for overall lesion score, difference to 0-control: day 21

O=C(O)[C@H](O)CO [DGA, D-glyceric acid]
metabolism of alcohol (metabolism of alcohol): expedited the metabolism of alcohol
survival and health parameters (CRP [1]; 4+7-day administration): improved survival and health parameters
blood CRP change vs 0-control (CRP [1]; 7-day IPA after 4-day priming, p-value=0.027): increased statistically significantly
survival and health parameters (CRP [2]; 4+7-day administration): improved survival and health parameters
blood CRP change vs 0-control (CRP [2]; 7-day follow up after 4-day priming, p-value=0.015, pairwise p-value=0005): declined statistically significantly
ROS generation vs 0-controls ([3]; 0 tBHP (healthy conditions)): lower
increase of average ROS generation in 15 minutes, tBHP group compared to without tBHP ([3]; 85 μM tBHP, 0 min to 15 min, control approximately 20%): approximately 30%
ROS level vs control groups ([3]; 15, 30 and 60 minutes after bolus 85 μM tBHP): statistically significantly lower
mortality after 14 days ([4]; DGA1 group): no mortality
oocyst count at 7 and 11 days post infection ([4]; DGA1 group): decreased in DGA1 group already in 7 days to similar levels than in P-control
oocyst count at 5 days (acute phase) ([4]; DGA1 group): less than in 0-control
feed conversion rate (FCR) vs 0-control ([4]; DGA1 group, appr. 9 mg/kg/day DGAcs in feed, 14-35, 21-35, 28-35 days, p-values 0.04 to 0.05): statistically significantly better
overall lesion score, difference to 0-control ([4]; DGA1 group): statistically significant only in P-control
body weight gain (14-35 days) vs 0-control ([4]; DGA1 group, p-value 0.002): statistically very significantly higher
difference in oocyst counts after the infection vs 0-control ([4]; DGA1 group, pairwise t-test p 0.04): statistically significant
number of oocyst in 7 and 11 day measurements ([4]; DGA½ group): declined to almost similar levels than in P-control
feed conversion rate (FCR) vs 0-control ([4]; DGA½ group, appr. 4.5 mg/kg/day): better compared to 0-control
overall lesion score, difference to 0-control ([4]; DGA½ group): statistically significant only in P-control
mortality after 14 days ([4]; DGA½ group, one bird clearly ill at slaughtering): no mortality
difference in oocyst counts after the infection vs 0-control ([4]; DGA½ group, pairwise t-test p 0.03): statistically significant
